Source: US20210101881A1 (Ancureall Pharmaceutical (Shanghai) Co., Ltd., priority 2018, published 2021)
Like-named read-outs stand apart in the source and are kept apart here.

Columns and labels:
CDK9/CyclinK kinase = target: T1, CDK9/CyclinK kinase (Homo sapiens, UniProt P50750); assay: CDK9 protein kinase activity, ADP-Glo CDK9/CyclinK kinase detection kit; type: biochemical; conditions: read-out: IC50 of the compound for inhibiting CDK9 protein kinase activity, CDK9/CyclinK kinase
T1 construct: purchased Promega Corporation V4105
Protocol: Measurement of CDK9 Protein Kinase Activity
The present compound was dissolved in DMSO (Sigma Aldrich), and the initial concentration of the compound was 1000 nM. A two-fold serial dilution was carried out. The specific operation of CDK9 kinase activity determination was carried out according to the ADP-Go™ CDK9/CyclinK kinase detection experimental procedure. […] Each test sample was tested in duplicate, and the test was repeated once. The inhibitory activity (IC50) of the compound on CDK9 protein kinase was calculated from the dose-inhibition curve of the compound.

MOLM13 cells = assay: Growth inhibition of CDK9-positive cell line MOLM13 in vitro (CCK8/MTT assay); type: cell-based, human; conditions: Homo sapiens
[1] = MOLM-13, read-out: IC50 of the compound for inhibiting cell growth, MOLM13 cells
[2] = MOLM-13, MOLM13 cells, cultured 3 to 6 days, CCK8, read-out: IC50 of the compound for inhibiting cell growth, MOLM13 cells

T1 sequence (P50750 whole entry): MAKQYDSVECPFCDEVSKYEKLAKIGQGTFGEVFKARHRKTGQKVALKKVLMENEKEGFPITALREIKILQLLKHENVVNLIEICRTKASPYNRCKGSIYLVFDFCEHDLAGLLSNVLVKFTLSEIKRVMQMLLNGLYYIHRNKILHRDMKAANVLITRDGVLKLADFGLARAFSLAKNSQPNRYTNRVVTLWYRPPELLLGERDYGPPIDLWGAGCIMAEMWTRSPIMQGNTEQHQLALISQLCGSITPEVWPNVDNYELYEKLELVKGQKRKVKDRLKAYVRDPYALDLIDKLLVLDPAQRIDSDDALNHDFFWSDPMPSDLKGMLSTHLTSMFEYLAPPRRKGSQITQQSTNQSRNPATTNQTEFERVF
T1 sequence (O75909 whole entry partner): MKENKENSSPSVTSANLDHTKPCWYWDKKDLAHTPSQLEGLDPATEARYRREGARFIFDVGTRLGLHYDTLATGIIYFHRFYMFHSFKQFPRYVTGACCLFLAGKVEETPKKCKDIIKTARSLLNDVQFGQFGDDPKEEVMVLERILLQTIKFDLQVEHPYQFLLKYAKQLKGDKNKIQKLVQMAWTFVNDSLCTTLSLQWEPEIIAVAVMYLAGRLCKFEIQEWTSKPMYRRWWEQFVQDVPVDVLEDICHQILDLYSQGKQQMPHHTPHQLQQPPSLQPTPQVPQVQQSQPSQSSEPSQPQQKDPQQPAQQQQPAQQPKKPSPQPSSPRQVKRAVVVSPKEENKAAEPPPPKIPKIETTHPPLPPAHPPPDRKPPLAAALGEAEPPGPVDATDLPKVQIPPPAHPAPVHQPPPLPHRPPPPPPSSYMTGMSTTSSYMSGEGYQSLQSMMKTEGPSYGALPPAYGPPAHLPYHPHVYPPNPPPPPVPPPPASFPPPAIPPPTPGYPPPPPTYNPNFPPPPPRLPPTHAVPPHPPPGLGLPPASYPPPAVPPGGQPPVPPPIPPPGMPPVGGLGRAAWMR

Structure (SMILES)	IC50 (CDK9/CyclinK kinase) [nM]	IC50 (MOLM13 cells; [1]) [nM]	IC50 (MOLM13 cells; [2]) [nM]
Cc1cc(Nc2ncc(F)c(-n3cc(C(N)=O)c4ccccc43)n2)ccc1N1CCNCC1 [Compound 39, 1-[5-fluoro-2-(3-methyl-4-piperazin-1-yl-phenylamino)-pyrimidin-4-yl]-1H-indole-3-carboxamide]	1 to 10	< 1	
Cc1cc(Nc2ncc(Cl)c(-n3cc(C(N)=O)c4ccccc43)n2)ccc1N1CCNCC1 [Compound 42, 1-[5-chloro-2-(3-methyl-4-piperazin-1-yl-phenylamino)-pyrimidin-4-yl]-1H-indole-3-carboxamide]	1 to 10		< 1
Cc1cc(Nc2ncc(F)c(-n3cc(C(N)=O)c4ccccc43)n2)ccc1N1CCN(C)CC1 [Compound 55, 1-{5-fluoro-2-[3-methyl-4-(4-methyl-piperazin-1-yl)-phenylamino]-pyrimidin-4-yl}-1H-indole-3-carboxamide]	1 to 10		< 1
Cc1cc(Nc2ncc(Cl)c(-n3cc(C(N)=O)c4ccccc43)n2)ccc1N1CCN(C)CC1 [Compound 56, 1-{5-chloro-2-[3-methyl-4-(4-methyl-piperazin-1-yl)-phenylamino]-pyrimidin-4-yl}-1H-indole-3-carboxamide]	1 to 10		< 1
Cc1cc(Nc2ncc(F)c(-n3cc(C(N)=O)c4ccccc43)n2)ccc1N(C)CCN(C)C [Compound 88, 1-(2-{4-[(2-dimethylamino-ethyl)-methyl-amino]-3-methyl-phenylamino}-5-fluoro-pyrimidin-4-yl)-1H-indole-3-carboxamide]	10 to 100		< 1
Cc1cc(Nc2ncc(Cl)c(-n3cc(C(N)=O)c4ccccc43)n2)ccc1N(C)CCN(C)C [Compound 89, 1-(5-chloro-2-{4-[(2-dimethylamino-ethyl)-methyl-amino]-3-methyl-phenylamino}-pyrimidin-4-yl)-1H-indole-3-carboxamide]	10 to 100		< 1
CN1CCN(c2cccc(Nc3ncc(F)c(-n4cc(C(N)=O)c5ccccc54)n3)c2)CC1 [Compound 115, 1-{5-fluoro-2-[3-(4-methyl-piperazin-1-yl)-phenylamino]-pyrimidin-4-yl}-1H-indole-3-carboxamide]	< 1	< 1	
CCC(C)N1CCN(c2cccc(Nc3ncc(F)c(-n4cc(C(N)=O)c5ccccc54)n3)c2)CC1 (stereo not shown) [Compound 145, 1-{2-[3-(4-sec-butyl-piperazin-1-yl)-phenylamino]-5-fluoro-pyrimidin-4-yl}-1H-indole-3-carboxamide]			10 to 100
NC(=O)c1cn(-c2nc(Nc3cccc(N4CCNCC4)c3)ncc2F)c2ccccc12 [Compound 146]			10 to 100
CC(C)(C)N1CCN(c2cccc(Nc3ncc(F)c(-n4cc(C(N)=O)c5ccccc54)n3)c2)CC1 [Compound 147, 1-{2-[3-(4-tert-butyl-piperazin-1-yl)-phenylamino]-5-fluoro-pyrimidin-4-yl}-1H-indole-3-carboxamide]			< 1
CN1CCC(N2CCN(c3cccc(Nc4ncc(F)c(-n5cc(C(N)=O)c6ccccc65)n4)c3)CC2)CC1 [Compound 148, 1-(5-fluoro-2-{3-[4-(1-methyl-piperidin-4-yl)-piperazin-1-yl]-phenylamino}-pyrimidin-4-yl)-1H-indole-3-carboxamide]			1 to 10
COc1ccc2c(c1)c(C(N)=O)cn2-c1nc(Nc2cccc(N3CCN(C4CCOCC4)CC3)c2)ncc1F [Compound 149, 1-(5-fluoro-2-{3-[4-(tetrahydro-pyran-4-yl)-piperazin-1-yl]-phenylamino}-pyrimidin-4-yl)-5-methoxy-1H-indole-3-carboxamide]			1 to 10
NC(=O)c1cn(-c2nc(Nc3cccc(N4CCN(C5CCOC5)CC4)c3)ncc2F)c2ccccc12 (stereo not shown) [Compound 150, 1-(5-fluoro-2-{3-[4-(tetrahydro-furan-3-yl)-piperazin-1-yl]-phenylamino}-pyrimidin-4-yl)-1H-indole-3-carboxamide]			1 to 10
COc1ccc2c(c1)c(C(N)=O)cn2-c1nc(Nc2cccc(N3CCN(C4CCOC4)CC3)c2)ncc1F (stereo not shown) [Compound 151, 1-(5-fluoro-2-{3-[4-(tetrahydro-furan-3-yl)-piperazin-1-yl]-phenylamino}-pyrimidin-4-yl)-5-methoxy-1H-indole-3-carboxamide]			1 to 10
NC(=O)c1cn(-c2nc(Nc3cccc(-n4cccn4)c3)ncc2F)c2ccccc12 [Compound 153, 1-[5-fluoro-2-(3-pyrazol-1-yl-phenylamino)-pyrimidin-4-yl]-1H-indole-3-carboxamide]			100 to 1000
Cc1cnn(-c2cccc(Nc3ncc(F)c(-n4cc(C(N)=O)c5ccccc54)n3)c2)c1 [Compound 154, 1-{5-fluoro-2-[3-(4-methyl-pyrazol-1-yl)-phenylamino]-pyrimidin-4-yl}-1H-indole-3-carboxamide]			100 to 1000

Structure (SMILES)	IC50 (CDK9/CyclinK kinase) [nM]	IC50 (MOLM13 cells; [1]) [nM]	IC50 (MOLM13 cells; [2]) [nM]
CC(O)CN1CCN(c2cccc(Nc3ncc(F)c(-n4cc(C(N)=O)c5ccccc54)n3)c2)CC1 (stereo not shown) [Compound 155, 1-(5-fluoro-2-{3-[4-(2-hydroxy-propyl)-piperazin-1-yl]-phenylamino}-pyrimidin-4-yl)-1H-indole-3-carboxamide]			1 to 10
NC(=O)c1cn(-c2nc(Nc3cccc(N4CCN(CC5CO5)CC4)c3)ncc2F)c2ccccc12 (stereo not shown) [Compound 156, 1-{5-fluoro-2-[3-(4-oxiranylmethyl-piperazin-1-yl)-phenylamino]-pyrimidin-4-yl}-1H-indole-3-carboxamide]			10 to 100
NC(=O)c1cn(-c2nc(Nc3cccc(N4CCN(CC5CCOCC5)CC4)c3)ncc2F)c2ccccc12 [Compound 157, 1-(5-fluoro-2-{3-[4-(tetrahydro-pyran-4-ylmethyl)-piperazin-1-yl]-phenylamino}-pyrimidin-4-yl)-1H-indole-3-carboxamide]			10 to 100
NC(=O)c1cn(-c2nc(Nc3cccc(N4CCN(C(=O)C5CCCO5)CC4)c3)ncc2F)c2ccccc12 (stereo not shown) [Compound 158, 1-(5-fluoro-2-{3-[4-(tetrahydro-furan-2-carbonyl)-piperazin-1-yl]-phenylamino}-pyrimidin-4-yl)-1H-indole-3-carboxamide]			10 to 100
COc1ccc2c(c1)c(C(N)=O)cn2-c1nc(Nc2cccc(N3CCN(C(C)C)CC3)c2)ncc1F [Compound 159, 1-{5-fluoro-2-[3-(4-isopropyl-piperazin-1-yl)-phenylamino]-pyrimidin-4-yl}-5-methoxy-1H-indole-3-carboxamide]			1 to 10
NC(=O)c1cn(-c2nc(Nc3cccc(N4CCN(CC5CCCO5)CC4)c3)ncc2F)c2ccccc12 (stereo not shown) [Compound 160, 1-(5-fluoro-2-{3-[4-(tetrahydro-furan-2-ylmethyl)-piperazin-1-yl]-phenylamino}-pyrimidin-4-yl)-1H-indole-3-carboxamide]			10 to 100
CCN1CCN(c2cccc(Nc3ncc(F)c(-n4cc(C(N)=O)c5cc(N)ccc54)n3)c2)CC1 [Compound 162, 5-amino-1-{2-[3-(4-ethyl-piperazin-1-yl)-phenylamino]-5-fluoro-pyrimidin-4-yl}-1H-indole-3-carboxamide]			1 to 10
CCN1CCN(c2cccc(Nc3ncc(F)c(-n4cc(C(N)=O)c5cc(O)ccc54)n3)c2)CC1 [Compound 163, 1-{2-[3-(4-ethyl-piperazin-1-yl)-phenylamino]-5-fluoro-pyrimidin-4-yl}-5-hydroxy-1H-indole-3-carboxamide]	< 1		< 1
CCN1CCN(c2cccc(Nc3ncc(F)c(-n4cc(C(N)=O)c5cc(OCCOC)ccc54)n3)c2)CC1 [Compound 164, 1-{2-[3-(4-ethyl-piperazin-1-yl)-phenylamino]-5-fluoro-pyrimidin-4-yl}-5-(2-methoxy-ethoxy)-1H-indole-3-carboxamide]			1 to 10
CC(=O)N1CCN(c2cccc(Nc3ncc(F)c(-n4cc(C(N)=O)c5ccccc54)n3)c2)CC1 [Compound 165, 1-{2-[3-(4-acetyl-piperazin-1-yl)-phenylamino]-5-fluoro-pyrimidin-4-yl}-1H-indole-3-carboxamide]			10 to 100
NC(=O)c1cn(-c2nc(Nc3cccc(N4CCN(C(=O)C5CCOCC5)CC4)c3)ncc2F)c2ccccc12 [Compound 166, 1-(5-Fluoro-2-{3-[4-(tetrahydro-pyran-4-carbonyl)-piperazin-1-yl]-phenylamino}-pyrimidin-4-yl)-1H-indole-3-carboxamide]			10 to 100
CCN1CCN(c2cccc(Nc3ncc(F)c(-n4cc(C(N)=O)c5cc(OCCN6CCOCC6)ccc54)n3)c2)CC1 [Compound 168, 1-{2-[3-(4-ethyl-piperazin-1-yl)-phenylamino]-5-fluoro-pyrimidin-4-yl}-5-(2-morpholin-4-yl-ethoxy)-1H-indole-3-carboxamide]			10 to 100
NC(=O)c1cn(-c2nc(Nc3cccc(N4CCN(C(=O)C5CCCN5)CC4)c3)ncc2F)c2ccccc12 (stereo not shown) [Compound 169, 1-(5-fluoro-2-{3-[4-(pyrrolidin-2-carbonyl)-1-piperazin-1-yl]-phenylamino}-pyrimidin-4-yl)-1H-indole-3-carboxamide]			1 to 10
NC(=O)c1cn(-c2nc(Nc3cccc(N4CCN(C(=O)C5CCOC5)CC4)c3)ncc2F)c2ccccc12 (stereo not shown) [Compound 170, 1-(5-fluoro-2-{3-[4-(tetrahydro-furan-3-carbonyl)-piperazin-1-yl]-phenylamino}-pyrimidin-4-yl)-1H-indole-3-carboxamide]			1 to 10
NC(=O)c1cn(-c2nc(Nc3cccc(N4CCN(C(=O)C5CCCC5)CC4)c3)ncc2F)c2ccccc12 [Compound 171]			10 to 100
CNC(=O)N1CCN(c2cccc(Nc3ncc(F)c(-n4cc(C(N)=O)c5ccccc54)n3)c2)CC1 [Compound 172, 1-{5-fluoro-2-[3-(4-methylcarbamoyl-piperazin-1-yl)-phenylamino]-pyrimidin-4-yl}-1H-indole-3-carboxamide]			10 to 100
